From patent US20220242846A1, “ISOINDOLINONE COMPOUNDS” (Monte Rosa Therapeutics AG, priority 2019, published 2022) come the findings set out here.

In general, IC50 refers to the concentration needed to halve the response being measured. Usually DC50 stands for the midpoint of the concentration-degradation curve. What is called EC50 is the midpoint of the concentration-response curve.

Assay [1] concerns the target T1, Full length wild-type cereblon CRBN (Homo sapiens, UniProt Q96SW2).
T1 construct: Full length wild-type cereblon CRBN (80.0 nM, 10 μL) was incubated in assay buffer
Kind of assay: Fluorescence polarization (FP) assay indicating cereblon binding. The note with it: CRBN 80.0 nM, fluorescent probe 5 nM, FP measured after 12 hours; read-out: rFP IC50. Put shortly: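 Full-length wild-type human CRBN (80.0 nM) preincubated 30 min at room temperature with compound (12-point curve, 300-0.937 or 3000-9.3 nM) in HEPES pH 8.0, NaCl, TCEP, Tween 20. Thalidomide-based Cy5-type probe then added at 5 nM final; FP read after 12 h (ex 590, em 675 nm), normalized to DMSO, IC50 derived.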
In general terms: Polarisation of emitted light reports the rotation of a fluorescent probe.

The target in a further assay is GSPT1 (Homo sapiens, UniProt P15170+Q96SW2). Kind of assay: Immunofluorescence assay for GSPT1 degradation in CAL-51 cells. The note with it: compound treatment 6 hours, read-out: Code: activity for GSPT1 degradation (DC50). Set-up: CAL-51 cells were purchased from DSMZ (cat. Number ACC302); endogenous in cells; host or cells: CAL-51 (DSMZ ACC302). Type of assay: cell-based. An outline of the steps:
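CAL-51 cells on fibronectin-coated plates treated 6 h with compound (30 μM to 0.1 nM); fixed, stained with anti-GSPT1/Alexa-488, phalloidin and DAPI, imaged by high-content microscopy. Mean GSPT1 intensity per cell normalized to controls; DC50 by non-linear regression.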

Assay [2] has as its system Human mammary epithelial cells (HMEC) engineered to express c-myc tagged with EGFP. Kind of assay: 3D spheroid assay, myc-HMEC (CellTiterGlo3D viability). Type of assay: cell-based.
Assay [3] deals with Human mammary epithelial cells (HMEC) engineered to express EGFP alone (non myc). The assay can be described thus: 3D spheroid assay, non myc-HMEC (CellTiterGlo3D viability). The note with it: 120 h, 3D spheroids, 5 days with compound, read-out: Code: EC50 value in the non myc-HMEC assay. Type of assay: cell-based. On the technique in general: ATP-based viability assays read luminescence as a measure of living cells.

Setting [4] is: Homo sapiens, HMEC, 120 h, 3D spheroids, 5 days with compound, read-out: Code: EC50 value in the myc-HMEC assay.

Read-outs that look alike come from different tables or passages of the source.

Chain of GSPT1 (P15170 whole entry): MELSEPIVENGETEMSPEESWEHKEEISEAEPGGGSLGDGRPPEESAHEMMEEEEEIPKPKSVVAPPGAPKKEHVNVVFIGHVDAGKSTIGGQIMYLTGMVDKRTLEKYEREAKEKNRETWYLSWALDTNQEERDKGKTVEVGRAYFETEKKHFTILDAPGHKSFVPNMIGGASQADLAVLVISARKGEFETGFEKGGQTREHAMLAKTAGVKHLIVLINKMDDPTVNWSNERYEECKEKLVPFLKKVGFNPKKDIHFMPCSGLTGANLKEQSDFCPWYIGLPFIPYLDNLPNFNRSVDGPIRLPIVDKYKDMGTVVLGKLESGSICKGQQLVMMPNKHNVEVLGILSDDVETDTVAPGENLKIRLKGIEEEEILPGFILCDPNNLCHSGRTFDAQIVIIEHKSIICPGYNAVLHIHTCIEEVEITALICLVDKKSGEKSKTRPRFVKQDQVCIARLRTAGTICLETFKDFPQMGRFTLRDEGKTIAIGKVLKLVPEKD
Chain of GSPT1 (Q96SW2 whole entry): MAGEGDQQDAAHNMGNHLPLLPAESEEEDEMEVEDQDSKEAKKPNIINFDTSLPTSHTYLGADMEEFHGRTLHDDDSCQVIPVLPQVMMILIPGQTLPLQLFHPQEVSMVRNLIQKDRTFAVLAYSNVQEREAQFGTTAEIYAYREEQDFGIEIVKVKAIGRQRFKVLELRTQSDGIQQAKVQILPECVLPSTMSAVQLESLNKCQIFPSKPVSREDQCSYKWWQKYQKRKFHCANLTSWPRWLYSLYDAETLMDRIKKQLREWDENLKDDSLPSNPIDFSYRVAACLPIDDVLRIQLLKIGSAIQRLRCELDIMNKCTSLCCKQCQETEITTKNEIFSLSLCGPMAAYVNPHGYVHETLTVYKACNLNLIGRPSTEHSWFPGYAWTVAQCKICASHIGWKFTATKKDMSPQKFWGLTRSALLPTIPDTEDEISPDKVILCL
Chain of GSPT1 (Q16531 2-1140 partner limits assumed): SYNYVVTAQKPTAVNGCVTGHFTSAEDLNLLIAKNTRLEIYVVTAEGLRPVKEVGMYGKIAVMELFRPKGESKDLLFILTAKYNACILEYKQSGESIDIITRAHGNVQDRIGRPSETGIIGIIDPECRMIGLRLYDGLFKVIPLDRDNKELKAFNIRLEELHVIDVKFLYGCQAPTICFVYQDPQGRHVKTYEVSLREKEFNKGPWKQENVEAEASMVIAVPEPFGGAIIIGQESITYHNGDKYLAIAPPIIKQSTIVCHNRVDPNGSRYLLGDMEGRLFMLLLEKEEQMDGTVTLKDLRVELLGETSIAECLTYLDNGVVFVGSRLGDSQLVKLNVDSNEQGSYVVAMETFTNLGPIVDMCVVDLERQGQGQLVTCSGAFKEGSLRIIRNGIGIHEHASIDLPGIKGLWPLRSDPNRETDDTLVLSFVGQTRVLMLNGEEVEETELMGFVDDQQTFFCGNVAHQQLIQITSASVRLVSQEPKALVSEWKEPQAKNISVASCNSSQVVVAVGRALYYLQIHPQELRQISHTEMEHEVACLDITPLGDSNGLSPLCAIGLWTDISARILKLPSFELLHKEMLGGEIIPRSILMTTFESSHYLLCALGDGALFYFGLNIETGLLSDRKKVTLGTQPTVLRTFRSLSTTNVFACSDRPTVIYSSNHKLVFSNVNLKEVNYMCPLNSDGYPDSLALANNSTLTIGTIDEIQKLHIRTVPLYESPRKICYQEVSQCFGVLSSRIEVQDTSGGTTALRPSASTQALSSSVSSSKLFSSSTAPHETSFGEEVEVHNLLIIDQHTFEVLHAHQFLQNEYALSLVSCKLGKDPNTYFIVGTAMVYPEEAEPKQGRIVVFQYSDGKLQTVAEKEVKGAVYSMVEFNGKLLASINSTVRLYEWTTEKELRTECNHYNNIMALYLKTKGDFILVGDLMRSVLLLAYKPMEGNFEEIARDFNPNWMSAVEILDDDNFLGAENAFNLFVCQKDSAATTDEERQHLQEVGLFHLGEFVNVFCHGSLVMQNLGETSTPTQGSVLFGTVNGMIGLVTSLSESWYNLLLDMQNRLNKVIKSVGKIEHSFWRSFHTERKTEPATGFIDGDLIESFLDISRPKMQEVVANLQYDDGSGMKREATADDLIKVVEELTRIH
T1 sequence (Q96SW2 whole entry): as the sequence (Q96SW2 whole entry) above

As to `O=C1CCC(N2Cc3ccc(CNC(=O)NC4CCCCC4)cc3C2=O)C(=O)N1` (stereo not shown) [Compound 29], the half-inhibitory concentration (IC50) in assay [1] came out at 1140 nM. For the same compound, the half-maximal degradation concentration (DC50) on GSPT1 is more than 300 nM. Moreover, the EC50 was more than 2000 nM in assay [2] (setting [4]) and more than 10000 nM in assay [3].

With `O=C1CCC(N2Cc3ccc(CNC(=O)Nc4cc(Cl)ccc4Cl)cc3C2=O)C(=O)N1` (stereo not shown) [Compound 35], the IC50 in assay [1] was found to be 602 nM. The DC50 on GSPT1 is more than 300 nM. The EC50 in assay [2] (setting [4]) is more than 2000 nM; in assay [3] it was more than 10000 nM.

`O=C1CCC(N2Cc3ccc(CNC(=O)Nc4cccc(Cl)c4Cl)cc3C2=O)C(=O)N1` (stereo not shown) [Compound 50]: the half-maximal inhibitory concentration (IC50) in assay [1] amounted to 479 nM. Besides, the DC50 at GSPT1 is more than 300 nM. For the same compound, the EC50 in assay [2] (setting [4]) is more than 2000 nM; in assay [3], more than 10000 nM.

`CCCCCCNC(=O)NCc1ccc2c(c1)C(=O)N(C1CCC(=O)NC1=O)C2` (stereo not shown) [Compound 13]: in assay [1], the IC50 worked out at 944 nM. Also, the 50% degradation concentration (DC50) at GSPT1 was more than 300 nM. The EC50 in assay [2] (setting [4]) is more than 2000 nM; in assay [3], more than 10000 nM.

`O=C1CCC(N2Cc3ccc(CNC(=O)Nc4ccccc4)cc3C2=O)C(=O)N1` (stereo not shown) [Compound 1]: the IC50 in assay [1] turned out to be 1040 nM. Besides, the half-maximal degradation concentration (DC50) at GSPT1 is more than 300 nM. Besides, the EC50 in assay [2] (setting [4]) was more than 2000 nM; in assay [3], more than 10000 nM.

On to `O=C1CCC(N2Cc3ccc(CNC(=O)Nc4cccc(Cl)c4F)cc3C2=O)C(=O)N1` (stereo not shown) [Compound 33], for which, in assay [1], the half-maximal inhibitory concentration (IC50) came to 591 nM. Moreover, on GSPT1, the 50% degradation concentration (DC50) was not above 100 nM. For the same compound, the EC50 in assay [2] (setting [4]) was not above 400 nM; in assay [2] (myc-HMEC 3D spheroids (compounds with code D and E), 5 days, read-out: EC50), 250 nM; in assay [3], more than 10000 nM.

As for `Cc1cccc(CNC(=O)NCc2ccc3c(c2)C(=O)N(C2CCC(=O)NC2=O)C3)c1` (stereo not shown) [Compound 63], in assay [1], the 50% inhibitory concentration (IC50) is 492 nM. Further, the 50% degradation concentration (DC50) at GSPT1 was more than 300 nM. The values for the EC50 in assay [2] (setting [4]) and in assay [3] were more than 2000 nM and more than 10000 nM, respectively.

Turning to `O=C1CCC(N2Cc3ccc(CNC(=O)NCCc4ccc(Cl)cc4)cc3C2=O)C(=O)N1` (stereo not shown) [Compound 64], the IC50 in assay [1] was 400 nM. At GSPT1, the 50% degradation concentration (DC50) is more than 300 nM. Further, the figures for the concentration giving a half-maximal response (EC50) in assay [2] (setting [4]) and in assay [3] were more than 2000 nM and more than 10000 nM, respectively.

`COc1ccccc1NC(=O)NCc1ccc2c(c1)C(=O)N(C1CCC(=O)NC1=O)C2` (stereo not shown) [Compound 7]: the IC50 in assay [1] worked out at 324 nM. On GSPT1, the DC50 was more than 300 nM. Moreover, the concentration giving a half-maximal response (EC50) in assay [2] (setting [4]) was more than 2000 nM; in assay [3], more than 10000 nM.

As for `COc1ccc(CNC(=O)NCc2ccc3c(c2)C(=O)N(C2CCC(=O)NC2=O)C3)cc1` (stereo not shown) [Compound 52], in assay [1], the half-inhibitory concentration (IC50) came to 477 nM. Moreover, the DC50 on GSPT1 is more than 300 nM. The EC50 in assay [2] (setting [4]) was more than 2000 nM; in assay [3] it was more than 10000 nM.

Consider `COc1cccc(NC(=O)NCc2ccc3c(c2)C(=O)N(C2CCC(=O)NC2=O)C3)c1` (stereo not shown) [Compound 6], for which, in assay [1], the IC50 turned out to be 467 nM. For the same compound, at GSPT1, the DC50 is more than 300 nM. Also, the EC50 in assay [2] (setting [4]) is more than 2000 nM; in assay [3] it was more than 10000 nM.

With `O=C1CCC(N2Cc3ccc(CNC(=O)Nc4ccccc4F)cc3C2=O)C(=O)N1` (stereo not shown) [Compound 48], the concentration for half-maximal inhibition (IC50) in assay [1] stood at 719 nM. Besides, on GSPT1, the half-maximal degradation concentration (DC50) was more than 300 nM. In addition, the concentration for a half-maximal effect (EC50) is more than 2000 nM in assay [2] (setting [4]) and more than 10000 nM in assay [3].
